The values below come from patent US20020188132A1, “Heteroaryl acetylenic sulfonamide and phosphinic acid amide hydroxamic acid TACE inhibitors” (priority 1999, published 2002).

Holding throughout (assay type): biochemical
One assay concerns the target T1, MMP-1 (Homo sapiens, UniProt P03956).
T1 sequence (P03956 100-469): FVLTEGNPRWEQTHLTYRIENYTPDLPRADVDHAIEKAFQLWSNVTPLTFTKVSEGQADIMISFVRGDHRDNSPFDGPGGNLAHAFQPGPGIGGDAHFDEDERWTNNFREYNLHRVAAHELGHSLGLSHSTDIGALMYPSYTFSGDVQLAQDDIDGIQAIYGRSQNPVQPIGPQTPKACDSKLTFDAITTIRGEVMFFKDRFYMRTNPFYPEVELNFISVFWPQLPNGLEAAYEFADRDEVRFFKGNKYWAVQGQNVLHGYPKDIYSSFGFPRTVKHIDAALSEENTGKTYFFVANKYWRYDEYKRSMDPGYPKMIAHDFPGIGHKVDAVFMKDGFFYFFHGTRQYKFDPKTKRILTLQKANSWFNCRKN
The experiment in a line: MMP-1 inhibition (thiopeptide or fluorescent peptide substrate). The method, then: (§1) These standard pharmacological test procedures are based on the cleavage of a thiopeptide substrates such as Ac-Pro-Leu-Gly(2-mercapto-4-methyl-pentanoyl)-Leu-Gly-OEt by the matrix metalloproteinases MMP-1, MMP-13 (collagenases) or MMP-9 (gelatinase), which results in the release of a substrate product that reacts calorimetrically with DTNB (5,5′-dithiobis(2-nitro-benzoic acid)). The enzyme activity is measured by the rate of the color increase. The thiopeptide substrate is made up fresh as a 20 mM stock in 100% DMSO and the DTNB is dissolved in 100% DMSO as a 100 mM stock and stored in the dark at room temperature. […] The buffer, enzyme, vehicle or inhibitor, and DTNB/substrate are added in this order to a 96 well plate (total reaction volume of 200 μl) and the increase in color is monitored spectrophotometrically for 5 minutes at 405 nm on a plate reader and the increase in color over time is plotted as a linear line.
(§2) Alternatively, a fluorescent peptide substrate is used. […] Upon cleavage of the substrate by an MMP, the fluorescence that is generated is quantitated on the fluorescence plate reader. […] The reaction is read (excitation 340 nm, emission 444 nm) for 10 min. and the increase in fluorescence over time is plotted as a linear line.
(§3) For either the thiopeptide or fluorescent peptide test procedures, the slope of the line is calculated and represents the reaction rate. […]

A further assay has as its target MMP-9 (Homo sapiens, UniProt P14780). Briefly: MMP-9 inhibition (thiopeptide or fluorescent peptide substrate). The method, then: as §1, §2, §3
For another assay, the target named is MMP-13 (Homo sapiens, UniProt P45452). Briefly: MMP-13 inhibition (thiopeptide or fluorescent peptide substrate). As to the method:
as §1, §2, §3

For the next assay, the target named is TACE (Homo sapiens, UniProt P78536). Briefly: TACE inhibition (fluorescent peptidyl substrate). As to the method:
Using 96-well black microtiter plates, each well receives a solution composed of 10 μL TACE (final concentration 1 μg/mL), 70 μL Tris buffer, pH 7.4 containing 10% glycerol (final concentration 10 mM), and 10 μL of test compound solution in DMSO (final concentration 1 μM, DMSO concentration <1%) and incubated for 10 minutes at room temperature. The reaction is initiated by addition of a fluorescent peptidyl substrate (final concentration 100 μM) to each well and then shaking on a shaker for 5 sec.
The reaction is read (excitation 340 nm, emission 420 nm) for 10 min. and the increase in fluorescence over time is plotted as a linear line. The slope of the line is calculated and represents the reaction rate.
The linearity of the reaction rate is confirmed (r^2>0.85). The mean (x±sem) of the control rate is calculated and compared for statistical significance (p<0.05) with drug-treated rates using Dunnett's multiple comparison test. Dose-response relationships can be generate using multiple doses of drug and IC50 values with 95% CI are estimated using linear regression.

Sequence of TACE (P78536 215-824): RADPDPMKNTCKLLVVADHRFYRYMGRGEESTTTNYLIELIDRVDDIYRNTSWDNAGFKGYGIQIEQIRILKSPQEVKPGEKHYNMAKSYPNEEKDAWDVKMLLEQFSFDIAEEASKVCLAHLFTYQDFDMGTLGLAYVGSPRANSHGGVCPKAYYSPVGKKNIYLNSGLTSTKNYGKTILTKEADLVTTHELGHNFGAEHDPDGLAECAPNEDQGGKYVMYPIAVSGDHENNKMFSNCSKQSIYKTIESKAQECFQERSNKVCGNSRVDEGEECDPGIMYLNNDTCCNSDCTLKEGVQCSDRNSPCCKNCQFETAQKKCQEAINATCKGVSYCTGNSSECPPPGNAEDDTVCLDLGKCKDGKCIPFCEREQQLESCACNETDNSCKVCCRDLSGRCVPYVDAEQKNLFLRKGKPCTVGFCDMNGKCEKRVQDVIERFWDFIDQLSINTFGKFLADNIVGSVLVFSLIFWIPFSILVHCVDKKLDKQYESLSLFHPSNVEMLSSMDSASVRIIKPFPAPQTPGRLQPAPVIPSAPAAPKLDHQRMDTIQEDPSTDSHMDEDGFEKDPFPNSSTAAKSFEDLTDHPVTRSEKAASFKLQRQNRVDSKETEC
Sequence of MMP-9 (P14780 94-707): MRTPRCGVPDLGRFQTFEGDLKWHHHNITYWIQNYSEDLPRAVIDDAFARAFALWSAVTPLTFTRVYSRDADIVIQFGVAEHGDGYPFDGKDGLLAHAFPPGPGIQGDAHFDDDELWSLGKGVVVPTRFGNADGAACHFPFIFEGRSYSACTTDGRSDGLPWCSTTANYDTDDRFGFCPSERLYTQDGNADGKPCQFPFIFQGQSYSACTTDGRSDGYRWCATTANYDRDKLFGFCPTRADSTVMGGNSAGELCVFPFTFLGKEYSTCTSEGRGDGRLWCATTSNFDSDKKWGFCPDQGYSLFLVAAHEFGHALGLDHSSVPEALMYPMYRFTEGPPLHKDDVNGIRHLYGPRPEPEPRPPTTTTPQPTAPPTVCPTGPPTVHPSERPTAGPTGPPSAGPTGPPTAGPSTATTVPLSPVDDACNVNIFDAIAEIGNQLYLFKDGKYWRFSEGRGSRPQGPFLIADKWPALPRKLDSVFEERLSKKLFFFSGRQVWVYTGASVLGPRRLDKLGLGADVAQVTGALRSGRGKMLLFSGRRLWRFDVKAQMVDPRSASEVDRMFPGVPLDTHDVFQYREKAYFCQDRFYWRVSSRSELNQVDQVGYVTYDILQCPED

For orientation: IC50 means the midpoint of a concentration-inhibition curve. Low readings indicate greater potency, high ones weaker potency. On to `CC#CCOc1ccc(S(=O)(=O)N(C)c2c(C(=O)NO)cc(OC)nc2OC)cc1` [Example 33, 3-[Methyl-(4-but-2-ynyloxy-benzenesulfonyl)-animo]-N-hydroxy-2,6-dimethoxy-isonicotinamide], for which the IC50 was approximately 10000 nM against MMP-1, 607 nM on MMP-9, 478 nM at MMP-13 and 11 nM against TACE.
Regarding `CC#CCOc1ccc(S(=O)(=O)Nc2c(C(=O)NO)cc(OC)nc2OC)cc1` [Example 35, 3-(4-But-2-ynyloxy-benzenesulfonylamino)-N-hydroxy-2,6-dimethoxy-isonicotinamide], the IC50 against TACE came out at 44 nM.
